Reference: patent US20250188088A1, “COMPOUND AND USE THEREOF” (ONQUALITY PHARMACEUTICALS CHINA LTD., priority 2022, published 2025)
Values belong to the compound of their own block, whether it stands above or below them.

What was measured:
[1] = tested on: rash caused by small molecule EGFR inhibitors; assay: Prevention of rash caused by small molecule EGFR inhibitors, topical ointment, rat model; type: in vivo, SD rats
Text: An Experiment to Verify the Prevention of Rash Caused by Small Molecule EGFR Inhibitors with Topical Administration of Compounds of the Present Application on a Rat Animal Model A rat animal model was established. After daily gavage of a small molecule EGFR inhibitor to female SD rats for […], the rats developed extensive rashes on their backs several days later (picture shown in FIG. 1). […] Similar to humans, rats developed skin rashes on their faces and bodies after oral administration of small molecule EGFR inhibitors. Both of them had the same etiology and very similar symptoms. Therefore, rats are a proper animal model for mimicking EGFR inhibitor-induced rash. After the SD rats were fed and adapted for one week (about 200 g), the rats were divided into 10 rats per group. The hair on the back of rats was gently removed with an electric razor one day before the experiment, and then an intragastric administration test was carried out. EGFR inhibitors were dissolved in a sterile aqueous solution, and diluted with PBS buffer; the amount of each gavage was not more than 2 mL, and the dosage was shown in Table 1. The experiment comprised the administration group and the control group. After intragastric administration, apply the ointment (type and concentration are shown in Table 1) of the compound used in the present application to the backs (about 3 cm*3 cm) of rats in the administration group; apply blank matrix ointment (about 0.5 g) to the backs (about 3 cm*3 cm) of rats in the control group; fix the rats with a fixed cylinder for about 4 hours after drug application, release the rats after 4 hours, wipe off the residual drug at the application site with clean water, and put them back into the cage. The frequency of intragastric administration of EGFR inhibitors is shown in Table 1, but the compounds of the present application and blank matrix ointment are applied only once a day. The intragastric administration and application test were repeated daily until an obvious rash appeared in the control group. […] Table 1 lists the animal experiment combination of various small molecule EGFR inhibitors and the compound ointment of the present application, as well as the corresponding experiment results (wherein, the value in the control rate column=the number of rats whose rash is milder in the administration group than that in the control group/the total number of rats in the administration group×100%).

[2] = tested on: rash caused by monoclonal EGFR inhibitors; assay: Prevention of rash caused by monoclonal EGFR inhibitors, topical ointment, rat model; type: in vivo, SD rats
Description: An Experiment to Verify the Prevention of Rash Caused by Monoclonal EGFR Inhibitors with Topical Administration of Compounds of the Present Application on a Rat Animal Model After the SD rats were fed and adapted for one week (about 200 g), the rats were divided into 10 rats per group. The hair on the back of rats was gently removed with an electric razor one day before the experiment, and then an administration test was carried out. The experiments were divided into the administration group with the compound of the present application and the control group. The EGFR monoclonal antibody solution diluted with normal saline was injected via the tail vein twice a week, and the injection rate and time are shown in Table 2. After injection, the administration group applied the compound ointment of the present application on the backs (about 3 cm*3 cm) of rats every day, and the control group applied blank matrix ointment (about 0.5 g) to the backs (about 3 cm*3 cm) of rats every day. After drug application, the rats were fixed with a fixed cyclinder for 4 h; after that, the rats were released and the residual drug at the application site was wiped off with clear water. Monoclonal antibody EGFR inhibitors were injected via the tail vein twice a week, and the compound of the present application and blank ointment were applied once a day until obvious rashes appeared in the control group. […] Table 2 lists the animal experiment combinations of various monoclonal antibody EGFR inhibitors and the compound ointment of the present application, as well as the corresponding experiment results (wherein, the value in the control rate column=the number of rats whose rash is milder in the administration group than that in the control group/the total number of rats in the administration group×100%).

[3] = Plasma stability, mini pig plasma; type: in vitro ADME, Mini Pigs; conditions: 37° C.
Description: (§1) In addition, the plasma stability of these compounds was determined. Briefly, the determination method comprises the following steps: • 1) Thaw the frozen mixed plasma in a 37° C. water bath before testing, and then centrifuge at 4000 rpm for 5 min to remove blood clots; • 2) Add 98 μL blank plasma into each well of the 96-well reaction plate; • 3) In addition to the blank samples, add 2 μL of 100 μM working solution of test compound into each well; • 3) Incubate the reaction plate at 37° C. and start timing. Incubation times were 0, 10, 30, 60 and 120 minutes, respectively, with two replicate wells at each time point; • 4) Terminate the incubation at the corresponding time point, and add 400 μL of acetonitrile solution containing 200 ng/mL tolbutamide and 200 ng/mL labetalol to precipitate proteins; • 5) Shake each plate for 20 minutes, then centrifuge at 4000 rpm for 20 minutes, transfer 50 μL of supernatant to another 96-well plate, and dilute each sample with 100 μL of pure water; • 6) Analyze the sample by LC-MS/MS.

[4] = tested on: skin contact delayed-type hypersensitivity; assay: Skin contact delayed-type hypersensitivity (DNFB) response test, ear swelling, topical ointment; type: in vivo; conditions: topical to ears, DNFB DTH, Balb/c mice, compared to blank ointment
Text: Therapeutic Effect of Topical Administration of Compounds of the Present Application in Skin Contact Delayed-Type Hypersensitivity Response Test in Mice Delayed-type hypersensitivity (DTH) response in mouse skin is considered to be an effective model for clinical contact dermatitis and other T cell-mediated cutaneous immune diseases, such as atopic dermatitis and psoriasis. The DTH in mice shares the common features with these cutaneous immune diseases, including immunoinfiltration with an increase of inflammatory cytokines and hyperproliferation of keratinocytes. Balb/c mice were sensitized by topical administration of the antigen 2,4-dinitrofluorobenzene (DNFB) to the shaved back of mice on Days 0 and 1. On Day 5, the thickness of the ears was measured using an engineering micrometer. The measurement result was recorded and used as a baseline. The animals were then challenged with a total of 20 μL of DNFB (10 μL for the internal pinna and 10 μL for the external pinna) topically dosed to both ears at a concentration of 0.2%. The ears were measured again 24-72 hours after challenge. The compound ointment of the present application was applied topically to the ears of the animals throughout the allergic and challenge periods (Days −1˜7) or before or throughout the challenge period (generally Days 4˜7). The therapeutic effect was expressed by a reduction in ear swelling compared to that of the blank ointment. The compound causing a reduction of 20% or more was considered effective. Table 5 lists the skin contact delayed-type hypersensitivity experiment results in mice treated with the compound of the present application.

[5] = Plasma stability, human plasma; type: in vitro ADME, Humans; conditions: 37° C.
Description: as §1
The experiment results are as follows, and it can be seen from the test results that the selected compounds are easily metabolized to the target compound in human plasma.

[6] = tested on: rash caused by monoclonal EGFR inhibitors; assay: Treatment of rash caused by monoclonal EGFR inhibitors, topical ointment, rat model; type: in vivo; conditions: SD rats
Description: An Experiment to Verify the Treatment of Rash Caused by Monoclonal EGFR Inhibitors with Topical Administration of Compounds of the Present Application on a Rat Animal Model After the SD rats were fed and adapted for one week (about 200 g), the rats were divided into 10 rats per group. The hair on the back of rats was gently removed with an electric razor one day before the experiment, and then an administration test was carried out. The EGFR monoclonal antibody solution diluted with normal saline was injected via tail vein twice a week, and the injection rate and time were shown in Table 4; the treatment experiment was started at the time point when rats developed a rash after continuous administration for 1-2 weeks. The experiments were divided into the administration group with the compound of the present application and the control group. During the treatment experiment, monoclonal antibody EGFR inhibitors were injected twice a week. the administration group applied the compound ointment of the present application on the back (about 3 cm*3 cm) of rats every day, and the control group applied blank matrix ointment on the back (about 3 cm*3 cm); after application, the rats were fixed with a fixed cyclinder for about 4 hours, and then the rats were released, with the residual drug at the application site wiped off with clean water, and put back into the cage. […] Table 4 lists the animal experiment combinations of monoclonal antibody EGFR inhibitors and the compound ointment of the present application, as well as the corresponding experiment results (wherein, the value in the control rate column=the number of rats whose rash is milder in the administration group than that in the control group/the total number of rats in the administration group×100%).

[7] = tested on: rash caused by small molecule EGFR inhibitors; assay: Treatment of rash caused by small molecule EGFR inhibitors, topical ointment, rat model; type: in vivo, SD rats
Description: An Experiment to Verify the Treatment of Rash Caused by Small Molecule EGFR Inhibitors with Topical Administration of Compounds of the Present Application on a Rat Animal Model After the SD rats were fed and adapted for one week (about 200 g), the rats were divided into 10 rats per group. The hair on the back of rats was gently removed with an electric razor one day before the experiment, and then an intragastric administration test was carried out. EGFR inhibitors were dissolved in a sterile aqueous solution, and diluted with PBS buffer; the amount of each gavage was not more than 2 mL, and the dosage was shown in Table 3. […] The experiments were divided into the administration group with the compound of the present application and the control group. During the treatment experiment, EGFR inhibitors were intragastrically administered continuously every day. After the gavage, the administration group applied the compound ointment of the present application on the back (about 3 cm*3 cm) of rats, and the control group applied blank matrix ointment on the back (about 3 cm*3 cm); after application, the rats were fixed with a fixed cyclinder for about 4 hours, and then the rats were released, with the residual drug at the application site wiped off with clean water, and put back into the cage. The frequency of intragastric administration of EGFR inhibitors is shown in Table 3, but the compounds of the present application and blank ointment are applied only once a day. […] Table 3 lists the animal experiment combinations of various small molecule EGFR inhibitors and the compound ointment of the present application, as well as the corresponding experiment results (wherein, the value in the control rate column=the number of rats whose rash is milder in the administration group than that in the control group/the total number of rats in the administration group×100%).

half-life at 2 µM [3]: 2.8 min
% Retained ([3]; 0 min): 100.0%
% Retained ([3]; 10 min): 8.3%
% Retained ([3]; 30 min): 0.1%
% Retained ([3]; 60 min): 0.0%
% Retained ([3]; 120 min): 0.0%
half-life at 2 µM [5]: 2.2 min
% Retained ([5]; 0 min): 100.0%
% Retained ([5]; 10 min): 4.5%
% Retained ([5]; 30 min): 0.0%
% Retained ([5]; 60 min): 0.0%
% Retained ([5]; 120 min): 0.0%
SMILES: C[C@@H]1CCN(C(=O)CC#N)C[C@@H]1N(C)c1ncnc2c1ccn2C(=O)N(C)CCOC(=O)C1CCCCC1 [Compound A16]
Control Rate ([1]; Afatinib 40 mg/kg once a day, ointment 1.0 wt% once a day, 14 days): 60%
Control Rate ([1]; Afatinib 40 mg/kg once a day, ointment 5.0 wt% once a day, 14 days): 80%
Control Rate ([1]; Afatinib 40 mg/kg once a day, ointment 10.0 wt% once a day, 14 days): 100%
Control Rate ([1]; BPI-7711 60 mg/kg once a day, ointment 1.0 wt% once a day, 12 days): 50%
Control Rate ([1]; Erlotinib 70 mg/kg once a day, ointment 0.3 wt% once a day, 14 days): 30%
Control Rate ([1]; Erlotinib 70 mg/kg once a day, ointment 3.0 wt% once a day, 14 days): 50%
Control Rate ([1]; Zorifertinib 60 mg/kg once a day, ointment 1.0 wt% once a day, 14 days): 30%
Control Rate ([2]; Cetuximab 100 mg/kg twice a week via tail vein, ointment 0.3 wt% once a day, 10 days): 10%
Control Rate ([2]; Cetuximab 100 mg/kg twice a week via tail vein, ointment 3.0 wt% once a day, 10 days): 50%
Control Rate ([2]; Cetuximab 100 mg/kg twice a week via tail vein, ointment 10.0 wt% once a day, 10 days): 70%
Control Rate ([2]; Panitumumab 10 mg/kg twice a week via tail vein, ointment 1.0 wt% once a day, 14 days): 50%
Control Rate ([2]; Panitumumab 10 mg/kg twice a week via tail vein, ointment 5.0 wt% once a day, 14 days): 80%
Control Rate ([2]; Panitumumab 10 mg/kg twice a week via tail vein, ointment 10.0 wt% once a day, 14 days): 60%
Reduction Rate of Ear Swelling ([4]; ointment 0.1 wt%): 25%
Reduction Rate of Ear Swelling ([4]; ointment 1.0 wt%): 35%
Reduction Rate of Ear Swelling ([4]; ointment 5.0 wt%): 39%
Reduction Rate of Ear Swelling ([4]; ointment 10.0 wt%): 42%

SMILES: C=CC(=O)N1C[C@@H](Nc2ncnc3c2ccn3C(=O)N(C)CCOC(=O)C2CC2)CC[C@H]1C [Compound A33]
Control Rate ([6]; Cetuximab 100 mg/kg twice a week via tail vein, ointment 0.1 wt%, 10 days of drug application): 20%
Control Rate ([6]; Cetuximab 100 mg/kg twice a week via tail vein, ointment 1.0 wt%, 10 days of drug application): 50%
Control Rate ([6]; Cetuximab 100 mg/kg twice a week via tail vein, ointment 5.0 wt%, 10 days of drug application): 80%
Control Rate ([6]; Cetuximab 100 mg/kg twice a week via tail vein, ointment 10.0 wt%, 10 days of drug application): 100%
Control Rate ([6]; Panitumumab 6 mg/kg twice a week via tail vein, ointment 0.1 wt%, 8 days of drug application): 30%
Control Rate ([6]; Panitumumab 6 mg/kg twice a week via tail vein, ointment 1.0 wt%, 8 days of drug application): 70%
Control Rate ([6]; Panitumumab 6 mg/kg twice a week via tail vein, ointment 5.0 wt%, 8 days of drug application): 70%
Control Rate ([6]; Panitumumab 6 mg/kg twice a week via tail vein, ointment 10.0 wt%, 8 days of drug application): 100%
Control Rate ([7]; EAI045 80 mg/kg once a day, 8 dosing modelling days, ointment 1.0 wt% once a day): 30%
Control Rate ([7]; EAI045 80 mg/kg once a day, 8 dosing modelling days, ointment 5.0 wt% once a day): 60%
Control Rate ([7]; Osimertinib 60 mg/kg twice a day, 7 dosing modelling days, ointment 3.0 wt% once a day): 30%
Control Rate ([7]; Osimertinib 60 mg/kg twice a day, 7 dosing modelling days, ointment 10.0 wt% once a day): 70%
Reduction Rate of Ear Swelling ([4]; ointment 1.0 wt%): 22%
Reduction Rate of Ear Swelling ([4]; ointment 5.0 wt%): 32%
